Counter-ions that a name gives are not always drawn.
Legend:
[1] = system: glioblastoma multiforme cells of line U373; assay: Inhibition of growth of glioblastoma multiforme cells, 7 days exposure; type: cell-based
Description: Inhibition of growth of glioblastoma multiforme cells of line U373 by exposure for 7 days to increasing concentrations of compound 109 compared to 10 uM compound 100.
Inhibition of growth of glioblastoma multiforme cells of line U373 by exposure for 7 days to increasing concentrations of compound 110 compared to 10 uM compound 100.
Inhibition of growth of glioblastoma multiforme cells of line […] by exposure for 7 days to increasing concentrations of compound 113 compared to 10 uM compound 100.
Inhibition of Growth of Glioblastoma Multiforme Cells of Line […] by Exposure for 7 Days to Increasing Concentrations of Compound 109, 110, 112, and 113

[2] = system: Akt; assay: Akt phosphorylation after intraperitoneal administration to mice; type: in vivo; settings: given intraperitoneally to normal mice
From the text: The compounds described herein increase the phosphorylation of several regulatory proteins including Akt. At low doses that are non-toxic to mice, these compounds slightly stimulate cell proliferation and increase phosphorylation of Akt in human cancer cells lines tested, including SH-SY5Y.
The mechanism by which the compounds described herein exert their neuroprotective effect may be by increasing the intra-neuronal cell activity of Akt-1 and enhancing the acetylation of neuronal histones. Each of these compounds when given by intraperitoneal injection increase Akt phosphorylation in mouse neurons. This increase in Aky phosphorylation is associated with an increase in the phosphorylation of GSK-3β. Because increased phosphorylation of GSK-3β is known to decrease its activity, chronic suppression of GSK 3β by the compounds described herein may reduce tau phosphorylation. Reduction in tau phosphorylation reduces the formation of paired helical filaments, an intervention that should lessen the progression of tauopathies, including Alzheimer's disease, Parkinson's disease, amyotrophic lateral sclerosis, and other rarer neurodegenerative diseases characterized by abnormal depositions of tau molecules.

[3] = Entry into the brain
[4] = system: Human Medulloblastoma DAOY cells; assay: DAOY xenografts implanted subcutaneously in SCID mice, tumor volume; type: in vivo; settings: subcutaneous DAOY xenografts, 0.12 mg and 0.18 mg doses, two weeks of treatment, vs vehicle (PBS)
Description: (§1) Medulloblastoma DAOY cells were implanted subcutaneously in the flanks of SCID mice. After 7 days when the implanted tumor cells reached a mass with the average diameter of 6 mm, 6 animals received 0.12 mg of Compound 110, 6 animals received 0.18 mg of Compound 110, and 6 animals, received vehicle (PBS) only. After two weeks of treatment all animals were sacrificed, the subcutaneous tumor masses resected, and their volumes calculated.
as §1, with “Human Medulloblastoma” for “Medulloblastoma”, “animals” for “animals,”, “treatment,” for “treatment”

[5] = increasing concentrations, 7 days exposure

Which melting point does the source give for `CN1CCN(C(=O)C2C3CCC(O3)C2C(=O)Oc2ccc(CC(N)C(=O)O)cc2)CC1` (centres unmarked) (as salt: hydrochloride) [Compound 110, 3-(4-Methylpiperazine-1-carbonyl)-7-oxa-bicyclo[2,2,1]heptane-2-carboxylic acid 4-(2-amino-2-carboxyethyl)-phenyl ester hydrochloride salt] here?
Its melting point is 110 °C (dec.).

Which results are given for `O=C(OCc1ccccc1)C1C2CCC(O2)C1C(=O)N1CCN(CCO)CC1` (centres unmarked) [Compound 109, 3-[4-(2-Hydroxyethyl)-piperazine-1-carbonyl]-7-oxa-bicyclo[2.2.1]heptane-2-carboxylic acid benzyl ester]?
inhibition of cell growth ([1]; highest concentrations, after 3 day): slight inhibition of cell growth; stimulation of cell growth ([1]; lower concentrations, increasing over 7 days): slight stimulatory activity

With `CN1CCN(C(=O)C2C3CCC(O3)C2C(=O)Oc2ccc(CC(N)C(=O)O)cc2)CC1` (centres unmarked) [Compound 110, 3-(4-Methylpiperazine-1-carbonyl)-7-oxa-bicyclo[2,2,1]heptane-2-carboxylic acid 4-(2-amino-2-carboxyethyl)-phenyl ester hydrochloride salt] as the compound, how does the Akt phosphorylation [2] read?
The Akt phosphorylation was “increased Akt phosphorylation”.

What about the “inhibition of cell growth” value [1, 5] of the same compound?
Its value is “inhibited cell growth in a dose dependent manner”.

What about the “entry into the brain” value [3] of the same compound?
The value was “properties that enhance their entry into the brain”.

What about the “inhibition of tumor growth (tumor volume)” value [4] of the same compound?
The value was “significant inhibition of tumor growth”.

For `CN1CCN(C(=O)C2C3CCC(O3)C2C(=O)Oc2ccc(CC(NC(=O)OC(C)(C)C)C(=O)O)cc2)CC1` (centres unmarked) [Compound 112, 3-(4-Methylpiperazine-1-carbonyl)-7-oxa-bicyclo[2,2,1]heptane-2-carboxylic acid 4-(2-tert-butoxycarbonylamino-2-carboxyethyl)-phenyl ester], which melting point is on record?
The melting point was 165 °C (dec.).

And the “inhibition of cell growth” value [1, 5]?
Its value is “inhibited cell growth in a dose dependent manner”.

What about the “entry into the brain” value [3] of the same compound?
Its value is “properties that enhance their entry into the brain”.

Which Akt phosphorylation [2] does the source give for `CN1CCN(C(=O)C2C3CCC(O3)C2C(=O)OCC(Cl)(Cl)Cl)CC1` (centres unmarked) [Compound 113, 3-(4-Methyl-piperazine-1-carbonyl)-7-oxa-bicylco[2,2,1]heptane-2-carboxylic acid 2,2,2-trichloroethyl ester] here?
Its Akt phosphorylation is “increased Akt phosphorylation”.

What about the “inhibition of cell growth” value [1, 5] of the same compound?
The value was “inhibited cell growth in a dose dependent manner”.

And the “entry into the brain” value [3]?
The value was “properties that enhance their entry into the brain”.

Which “entry into the brain” value [3] does the source give for `O=C(O)C1C2CCC(O2)C1C(=O)NCCN1C(=O)NC(c2ccccc2)(c2ccccc2)C1=O` (centres unmarked) [Compound 114, 3-[2-(2,5-Dioxo-4,4-diphenyl-imidazolidin-1-yl)-ethylcarbamoyl]-7-oxa-bicyclo(2.2.1]heptane-2-carboxylic acid] here?
The value was “properties that enhance their entry into the brain”.

— patent US8541458B2, “Oxabicycloheptanes and oxabicycloheptenes, their preparation and use” (Lixte Biotechnology, Inc., priority 2008, dated 2013)
